Laboratory results published in patent US6436963B1 (priority 1998, dated 2002).

Assays:
Format in all cases: in vivo
Erysiphe graminis = experiment: Powdery Mildew of Wheat (ERYSGT), protectant spray test on wheat seedlings; conditions: wheat (cultivar Monon), sprayed to run off at 100 ppm, inoculated after 24 hours
Leptosphaeria nodorum = experiment: Glume Blotch of Wheat (LEPTNO), protectant spray test on wheat seedlings; conditions: wheat (cultivar Monon), sprayed to run off at 100 ppm, inoculated after 24 hours
Puccinia recondita = experiment: Brown Rust (PUCCRT), protectant spray test on wheat seedlings; conditions: wheat (cultivar Monon), sprayed to run off at 100 ppm, inoculated after 24 hours
Phytophthora infestans = conditions: tomatoes (cultivar Rutgers), sprayed to run off at 100 ppm, inoculated after 24 hours

| Structure (SMILES) | ERYSGT control of plant disease (Erysiphe graminis) | LEPTNO control of plant disease (Leptosphaeria nodorum) | PUCCRT control of plant disease (Puccinia recondita) | PHYTIN control of plant disease (Phytophthora infestans) |
| --- | --- | --- | --- | --- |
| CNC(=O)C(=NOC)c1ccccc1COc1ncc(C(C)OCc2ccccc2OC)cc1Cl (stereo not drawn) [Example 97] | ++ (++ = 75-100% control of plant disease) | ++ (++ = 75-100% control of plant disease) | ++ (++ = 75-100% control of plant disease) | − (− = 0-24% control of plant disease) |
| CNC(=O)C(=NOC)c1ccccc1COc1ncc(C(OC(=O)OC)c2ccccc2)cc1Cl (stereo not drawn) [Example 68] | ++ (++ = 75-100% control of plant disease) | − (− = 0-24% control of plant disease) | ++ (++ = 75-100% control of plant disease) | ++ (++ = 75-100% control of plant disease) |
| CNC(=O)C(=NOC)c1ccccc1COc1ncc(C(OC(C)C)c2ccccc2)cc1Cl (stereo not drawn) [Example 117] | ++ (++ = 75-100% control of plant disease) | ++ (++ = 75-100% control of plant disease) | ++ (++ = 75-100% control of plant disease) | − (− = 0-24% control of plant disease) |
| CNC(=O)C(=NOC)c1ccccc1COc1ncc(C(OC(C)=O)c2ccsc2)cc1Cl (stereo not drawn) [Example 121] | ++ (++ = 75-100% control of plant disease) | – | – | ++ (++ = 75-100% control of plant disease) |
| CNC(=O)C(=NOC)c1ccccc1COc1ncc(C(O)c2ccc(C(C)(C)C)cc2)cc1Cl (racemic) [Example 10] | ++ (++ = 75-100% control of plant disease) | ++ (++ = 75-100% control of plant disease) | ++ (++ = 75-100% control of plant disease) | ++ (++ = 75-100% control of plant disease) |
| CNC(=O)C(=NOC)c1ccccc1COc1ncc(C(OC(=O)COC)c2ccccc2)cc1Cl (racemic) [Example 64] | ++ (++ = 75-100% control of plant disease) | + (+ = 25-74% control of plant disease) | ++ (++ = 75-100% control of plant disease) | ++ (++ = 75-100% control of plant disease) |
| CNC(=O)C(=NOC)c1ccccc1COc1ncc(C(OC(C)=O)c2ccccc2C)cc1Cl (racemic) [Example 61] | ++ (++ = 75-100% control of plant disease) | ++ (++ = 75-100% control of plant disease) | ++ (++ = 75-100% control of plant disease) | ++ (++ = 75-100% control of plant disease) |
| CNC(=O)C(=NOC)c1ccccc1COc1ncc(C(O)(CO)c2ccccc2)cc1Cl (stereo not drawn) [Example 86] | − (− = 0-24% control of plant disease) | − (− = 0-24% control of plant disease) | ++ (++ = 75-100% control of plant disease) | ++ (++ = 75-100% control of plant disease) |
| CNC(=O)C(=NOC)c1ccccc1COc1ncc(C2(c3ccccc3)CO2)cc1Cl (stereo not drawn) [Example 124] | ++ (++ = 75-100% control of plant disease) | ++ (++ = 75-100% control of plant disease) | ++ (++ = 75-100% control of plant disease) | ++ (++ = 75-100% control of plant disease) |
| CNC(=O)C(=NOC)c1ccccc1COc1ncc(C(O)c2cccc3ccccc23)cc1Cl (stereo not drawn) [Example 103] | + (+ = 25-74% control of plant disease) | ++ (++ = 75-100% control of plant disease) | ++ (++ = 75-100% control of plant disease) | ++ (++ = 75-100% control of plant disease) |
| CCCC(=O)OC(c1ccc(F)cc1)c1cnc(OCc2ccccc2C(=NOC)C(=O)NC)c(Cl)c1 (racemic) [Example 50] | ++ (++ = 75-100% control of plant disease) | ++ (++ = 75-100% control of plant disease) | ++ (++ = 75-100% control of plant disease) | ++ (++ = 75-100% control of plant disease) |
| CNC(=O)C(=NOC)c1ccccc1COc1ncc(C(O)c2cccc(C(F)(F)F)c2)cc1Cl (racemic) [Example 12] | ++ (++ = 75-100% control of plant disease) | ++ (++ = 75-100% control of plant disease) | ++ (++ = 75-100% control of plant disease) | ++ (++ = 75-100% control of plant disease) |
| CCOC(C)(c1ccccc1)c1cnc(OCc2ccccc2C(=NOC)C(=O)NC)c(Cl)c1 (stereo not drawn) [Example 122] | ++ (++ = 75-100% control of plant disease) | – | – | − (− = 0-24% control of plant disease) |
